According to patent publication US11014902B2, “MYC G-quadruplex stabilizing small molecules and their use” (The United States of America, as represented by the …, priority 2015, dated 2021):

Assays:
[1] = test system: c-MYC exon 2 transcription in CA46 cells; experiment: Exon specific qPCR assay, exon 2; type: cell-based, human; details: 10 μM, up to 48 hours
Excerpt: (§1) To confirm a G4 specific mechanism of action in cells, the CA46 Burkitt's Lymphoma line was used in an exon-specific assay, as previously reported (Boddupally, et al., J Med Chem 2012, 55, 6076). For most cell lines, 85-90% of c-Myc expression is controlled by the G4 located prior to exons 1 and 2 in the promoter. Furthermore, expression predominantly occurs following exon 2, due to a thousand-fold increase in transcription from this allele (Brown, et al., J Biol Chem 2011, 286, 41018). The CA46 Burkitt's Lymphoma cell line is an exception to this trend due to the existence of a chromosome (8:14) (Pelicci, et al., Proc Natl Acad Sci USA 1986, 83, 2984) translocation between exons 1 and 2, leaving exon 1 under G4 control. As a result, c-Myc expression from exon 2 is G4 independent (FIG. 3B). This renders the overall cell line resistant to G4-mediated c-Myc inhibition at the RNA and protein level, and proliferation should be uninhibited by G4-stabilizing agents.
(§2) CA46 cells were treated with ligands of interest or DMSO control at designated time points, washed in PBS, flash frozen, and RNA isolated using the Qiagen RNeasy Kit. RNA was quantified by NanoDrop, and 0.5 μg was reverse transcribed for use in qPCR. […]

[2] = Stability study in culture media (LC/MS); type: physicochemical; details: RPMI-1640, LC/MS, up to 72 h
Excerpt: Having established the reversible binding of Compound 1 to quadruplex DNA and selective quadruplex-dependent silencing of c-Myc, one consideration that remained was the presence of a benzylaminophenol functional group in Compound 1. It has previously been reported that compounds containing this functional group can have the propensity to eject amines, form an o-quinone methide, and alkylate proteins (Weinert, et al., J Am Chem Soc 2006, 128, 11940; Herzig, et al., J Org Chem 2006, 71, 4130; McLean, et al., Bioorg Med Chem Lett 2009, 19, 6717). To assess whether Compound 1 was undergoing this reactivity, a small series of analogs was prepared. In FIG. 6C, compounds lacking the phenol or amino group were prepared and evaluated. […] Additionally, the stability of Compound 1 was evaluated (see FIG. 7). […] Additionally, the putative hydrolysis products arising from quinone methide formation were not observed at any time by LC/MS.
Compound 1 (10 μL of 1 mM DMSO solution) was added to 490 μL RPMI-1640 culture media. After 1 min, 25 h, 48 h, and 72 h, 100 μL of this solution was diluted into 100 μL acetonitrile. The mixture was centrifuged at 5500 rpm for 1 min and the supernatant was removed from the pellet. […]
Compound 1 (10 μL of 1 mM DMSO solution) was added to 490 μL RPMI-1640 culture media. […] The mass corresponding to Compound 1 (M+H^+=393) was extracted and the chromatogram evaluated. […]

[3] = test system: c-Myc transcription; experiment: c-Myc transcription in myeloma cells (qPCR); type: cell-based, human; details: 10 μM, after 24 hours
Method: (§3) Since two thirds of multiple myeloma cases involve deregulated c-MYC expression (Kuehl and Bergsagel, Blood 2012, 120, 2351; Shou, et al., Proc Natl Acad Sci USA 2000, 97, 228), we elected to evaluate the cell viability effects of Compound 1 in a multiple myeloma model. […] This suppression was maintained over 72 hours, which is notable given the characteristic rapid replenishment of the protein—a phenomenon that complicates targeting c-Myc at the protein level (FIG. 4C). This effect was maintained across a genetically diverse set of 4 multiple myeloma lines. We observed decreases in c-MYC translation in all lines tested, and this effect also correlated with decreases in viability (FIG. 4D).

[4] = test system: c-Myc protein; experiment: c-Myc protein translation in myeloma cells (Western blot); type: cell-based, human; details: 10 μM, maintained over 72 hours
Method: as §3
Cell pellets/tissue were homogenized and lysed in RIPA buffer on ice for 1 h. Protein was quantitated by BCA, and equal protein was loaded onto 4-12% Bis-Tris Gels (Novex), electrophoresed at 150 V for 75 min to obtain sufficient separation, and transferred via the iBlot system (Life Technologies). Successful transfer and uniform loading was confirmed by Ponceau S staining (Thermo Scientific). Blots were blocked in 10% dry milk in TBST, incubated with primary monoclonal antibodies in 5% BSA at concentrations designated by the manufacturer, and gently rotated at 4° C. overnight. […]

[5] = test system: c-MYC exon 1 transcription in CA46 cells; experiment: Exon specific qPCR assay, exon 1; type: cell-based, human; details: 10 μM, up to 48 hours
Excerpt: as §1, §2

Cc1ccc(NC(=O)c2c(C)oc3ccc(O)c(CN4CCCCCC4)c23)cc1 [Compound 1]
transcription from exon 2 [1]: unaffected | stability in culture media [2]: persisted in culture media over a period of 72 h | decrease in c-Myc transcription [3]: seven-fold decrease | c-Myc protein translation [4]: significantly inhibited | transcription from exon 1 [5]: sustained downregulation
